# Source: patent US20260191827A1, “COMPOUNDS FOR USE IN THE TREATMENT OF DISEASES AND CONDITIONS ASSOCIATED WITH NEURODEGENERATIVE DYSFUNCTION” (OnTrack Therapeutics Limited, priority 2022, published 2026)
# Where a name gives a salt, the structure may show the parent alone.
# Experiments:
# [1] = tested on: scopolamine-induced impairment in cognition; details: normal healthy humans, donepezil 10 mg; cited from earlier work
# [2] = tested on: scopolamine-induced cognitive deficit in mice; assay: Scopolamine-induced cognitive deficit, T-maze spontaneous alternation
# Method: 60 male CD-1 mice (Janvier; Le Genest St Isle—France) were used for the study, with 10 animals per group.
# Animals in the API groups were pre-treated (p.o.) once a day for 30 days, the last treatment was given 1 h before the T-maze test.
# Compound of Formula I or its vehicle was administered at 5 ml/kg using p.o. route. The vehicle was 5% DMSO/0.5% methylcellulose in water. Fresh compound solution was prepared daily as following: the required amount of compound will be dissolved in 100% DMSO and then the required amount of 0.5% methylcellulose in water was added.
# On the day of the T-maze, the last treatment was given 1 h before the task.
# Donepezil (donepezil hydrochloride) was prepared in saline at a concentration of 0.03 mg/ml and was given p.o. at a dosage volume of 10 ml/kg 1 h before the T-maze trial start.
# Scopolamine was prepared in saline (vehicle) at a concentration of 0.089 mg/ml (free base) and was given i.p. at a dosage volume of 10 ml/kg 30 min before the T-maze trial start.
# The T-maze consists of 2 choice arms and 1 start arm mounted to a square centre. Sliding doors are provided to close specific arms during the force choice alternation task.
# The experimental protocol consists of one single session, which starts with 1 “forced-choice” trial, followed by 14 “free-choice” trials. In the first “forced-choice” trial, the animal was confined for 5 s in the start arm and then was released while either the left or right goal arm was blocked by closing the sliding door. The animal then negotiated the maze, and eventually entered the open goal arm, and returned to the start position.
# Immediately after the return of the animal to the start position, the left or right goal door was opened, and the animal was allowed to choose freely between the left and right goal arm (“free choice trials).
# The animal was considered to have entered an arm when it placed its four paws in the arm.
# A session was terminated, and the animal was removed from the maze as soon as 14 free-choice trials had been performed or 10 min have elapsed, whatever event occurred first.
# The percentage of spontaneous alternations were calculated as number of spontaneous alternations divided by 14 possible free choice.
# Statistical analysis was assessed using Anova followed by Fischer's Protected Least Significant Difference for pairwise comparison. p level <0.05 was deemed significant.
# [3] = tested on: sub-chronic PCP-induced deficits in recognition memory in rats; assay: Sub-chronic PCP-induced deficit in novel object recognition (NOR) paradigm; details: for Acquisition total exploration time / Retention total exploration time: mean ± s.e.m.
# [4] = tested on: animal model of Alzheimer's disease; details: low dose; Chen et al., 2021; cited from earlier work
# 5XFAD mice = details: repeated administration, WO2020/033604; cited from earlier work
# [5] = target: tropomyosin receptor kinase B (TrkB) (Homo sapiens, UniProt Q16620); details: known from background; cited from earlier work
# [6] = 20-day phase (day 20), scPCP rats, acute risperidone 0.1 mg/kg i.p. 60 min before test
# [7] = acute phase (day 1), scPCP rats, risperidone 0.1 mg/kg i.p. 60 min before test
# [8] = 20-day once-daily treatment, scPCP rats, 10 mg/kg p.o.
# [9] = 20-day once-daily treatment, scPCP rats, 30 mg/kg p.o.
# [10] = acute treatment, scPCP rats, 10 mg/kg p.o. 120 min before test
# [11] = acute treatment, scPCP rats, 30 mg/kg p.o. 120 min before test
# Sequence of tropomyosin receptor kinase B (TrkB) (Q16620 32-822, species assumed): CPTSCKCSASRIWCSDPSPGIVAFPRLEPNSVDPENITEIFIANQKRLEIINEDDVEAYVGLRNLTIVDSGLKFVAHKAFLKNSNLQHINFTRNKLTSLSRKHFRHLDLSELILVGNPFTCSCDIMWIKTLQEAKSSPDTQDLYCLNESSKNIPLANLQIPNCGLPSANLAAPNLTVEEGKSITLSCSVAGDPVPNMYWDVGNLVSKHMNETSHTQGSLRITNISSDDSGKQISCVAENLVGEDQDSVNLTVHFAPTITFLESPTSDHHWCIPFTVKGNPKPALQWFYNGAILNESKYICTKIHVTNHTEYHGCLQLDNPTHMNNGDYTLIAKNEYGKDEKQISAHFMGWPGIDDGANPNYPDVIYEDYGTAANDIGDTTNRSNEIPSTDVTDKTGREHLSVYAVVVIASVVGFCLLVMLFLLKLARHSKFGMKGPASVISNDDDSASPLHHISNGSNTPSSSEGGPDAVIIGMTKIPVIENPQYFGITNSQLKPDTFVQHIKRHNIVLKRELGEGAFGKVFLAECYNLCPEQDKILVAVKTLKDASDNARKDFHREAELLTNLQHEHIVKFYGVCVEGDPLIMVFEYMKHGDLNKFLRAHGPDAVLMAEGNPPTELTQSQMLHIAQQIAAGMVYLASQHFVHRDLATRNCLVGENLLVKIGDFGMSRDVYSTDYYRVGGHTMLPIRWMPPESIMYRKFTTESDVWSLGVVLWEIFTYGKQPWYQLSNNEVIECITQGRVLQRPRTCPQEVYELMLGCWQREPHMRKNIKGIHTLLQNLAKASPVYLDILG
compound,measurement,setting,value
"COc1cc2c(cc1OC)C(=O)C(CC1CCN(Cc3ccccc3)CC1)C2 (stereo not drawn) [Donepezil, donepezil hydrochloride, reference compound]","scopolamine-induced impairment in cognition (power of attention, continuity of attention, quality of working memory, speed of memory)",[1],significantly attenuated
same,Spontaneous alternation (%),"[2]; Scopolamine 0.89 mg/kg i.p., Donepezil 0.3 mg/kg p.o. 1 h before T-maze, hydrochloride",65.0%
same,Spontaneous alternation (%),"[2]; Scopolamine 0.89 mg/kg i.p., Donepezil 0.3 mg/kg p.o. 1 h before T-maze, listed as donepezil, hydrochloride",65%
same,effect on scopolamine-induced decline in cognitive function,"[2]; donepezil 0.3 mg/kg, statistically significant",ameliorated
"Cc1nc2n(c(=O)c1CCN1CCC(c3noc4cc(F)ccc34)CC1)CCCC2 [Risperidone, risperidone, reference compound]",Acquisition total exploration time,[3]; [6],25.5 ± 3.4 s
same,Retention total exploration time,[3]; [6],17.8 ± 1.1 s
same,Acquisition total exploration time,[3]; [7],22.81 ± 4.03 s
same,Retention total exploration time,[3]; [7],23.10 ± 2.92 s
same,discrimination index (DI),"[3]; acute phase, risperidone 0.1 mg/kg i.p., versus scPCP without treatment and test compound (FIG. 4)",higher
same,rescue of deficits induced by scPCP in NOR,[3]; risperidone dosed acutely,able to rescue the deficits induced by scPCP
"N#Cc1ccc(-c2cc(=O)c3ccc4[nH]c(C(F)(F)F)nc4c3o2)cc1 [compound of Formula I, 4-(6-oxo-2-(trifluoromethyl)-3,6-dihydrochromeno [7,8-d]imidazol-8-yl)benzonitrile]",dose effect in Alzheimer's disease animal model,[4],saturation effect
same,spontaneous alternations in comparison to vehicle in scopolamine-treated mice,"[2]; 30 days treatment prior to scopolamine, statistically significant",increased percentage of spontaneous alternations
same,Spontaneous alternation (%),"[2]; Saline (healthy mice), Compound of Formula I high dose 10 mg/kg p.o. once a day for 30 days, 10 mg/kg",64%
same,Spontaneous alternation (%),"[2]; Saline (healthy mice), Compound of Formula I high dose 10 mg/kg p.o. once a day for 30 days, listed as Compound of Formula I, 10 mg/kg",64.3%
same,Spontaneous alternation (%),"[2]; Scopolamine, Compound of Formula I high dose 10 mg/kg p.o. once a day for 30 days, 10 mg/kg",56%
same,Spontaneous alternation (%),"[2]; Scopolamine, Compound of Formula I high dose 10 mg/kg p.o. once a day for 30 days, listed as Compound of Formula I, 10 mg/kg",55.7%
same,Spontaneous alternation (%),"[2]; Scopolamine, Compound of Formula I low dose 5 mg/kg p.o. once a day for 30 days, 5 mg/kg",56%
same,Spontaneous alternation (%),"[2]; Scopolamine, Compound of Formula I low dose 5 mg/kg p.o. once a day for 30 days, listed as Compound of Formula I, 5 mg/kg",55.7%
same,effect on cognition in healthy animals,"[2]; healthy mice, 10 mg/kg, 30 days",did not impair cognition in healthy animals
same,synaptic loss,5XFAD mice,able to prevent synaptic loss
same,Acquisition total exploration time,[3]; [8],24.6 ± 3.4 s
same,Retention total exploration time,[3]; [8],19.0 ± 1.4 s
same,Acquisition total exploration time,[3]; [9],26.1 ± 3.1 s
same,Retention total exploration time,[3]; [9],20.8 ± 1.2 s
same,discrimination index (DI),"[3]; 20-day treatment, 30 mg/kg, compared to animals without treatment, P<0.015 (FIG. 8)",statistically significant increase
same,amount of time spent exploring the familiar and novel object in the retention trial,"[3]; 20-day treatment, scPCP rats, 10 & 30 mg/kg p.o., P<0.01 (FIG. 7)",dose dependent statistically significant effect
same,Acquisition total exploration time,[3]; [10],21.75 ± 2.46 s
same,Retention total exploration time,[3]; [10],22.55 ± 1.60 s
same,Acquisition total exploration time,[3]; [11],25.49 ± 3.04 s
same,Retention total exploration time,[3]; [11],26.18 ± 2.11 s
same,amount of time exploring the novel or familiar object in the retention trial,"[3]; acute treatment, scPCP rats, 10 & 30 mg/kg p.o. (FIG. 3)",not shown to have a difference
same,rescue of deficits induced by scPCP in NOR,[3]; dosing for a 20-day period,able to rescue the scPCP in a dose dependent manner
"O=c1cc(-c2ccccc2)oc2c(O)c(O)ccc12 [tropoflavin, 7,8-dihydroxyflavone]",TrkB activity,[5],potent and selective agonist
